Test results as given in US5686563A, “Biologically active peptides having n-terminal substitutions” (priority 1995, dated 1997).
Square brackets hold non-standard residues; d marks the D form. Ends that are not written are not given here. Peptide text beside a SMILES is read from it. * marks the point of attachment. hArg = N=C(N)NCCCC[C@H](N)C(=O)O; Octanoyl = CCCCCCCC(=O)*

What was measured:
Assay in all cases: Anaerobic antimicrobial susceptibility test (MIC)
Type in all cases: cell-based
P. gingivalis = conditions: 37° C., 24-48 hours; for MIC P. gingivalis (strain) W50: strain W50, BHI broth; for MIC P. gingivalis (strain) 9-14K-1: strain 9-14K-1, BHI broth; for MIC P. gingivalis (strain) 381: strain 381, BHI broth; for MIC P. gingivalis (strain) A7A1-28: strain A7A1-28, BHI broth; for MIC P. gingivalis (strain) FAY-19M-1: strain FAY-19M-1, BHI broth
A. viscosus = conditions: BHI broth, 37° C., 24-48 hours
S. mutans = conditions: BHI broth, 37° C., 24-48 hours

Molecule	MIC P. gingivalis (strain) W50 (P. gingivalis) [μl/ml]	MIC A. viscos (A. viscosus) [μl/ml]	MIC P. gingivalis (strain) 9-14K-1 (P. gingivalis) [μl/ml]	MIC P. gingivalis (strain) 381 (P. gingivalis) [μl/ml]	MIC P. gingivalis (strain) A7A1-28 (P. gingivalis)	MIC P. gingivalis (strain) FAY-19M-1 (P. gingivalis) [μl/ml]	MIC S. mutans (S. mutans) [μl/ml]
CC[C@H](C)[C@H](NC(=O)[C@H](CCCCNC(=N)N)NC(=O)CNC(=O)[C@H](C)NC(=O)[C@@H](NC(=O)[C@H](CCCCNC(=N)N)NC(=O)[C@H](C)NC(=O)[C@@H](NC(=O)[C@H](CCCCNC(=N)N)NC(=O)CNC(=O)[C@H](C)NC(=O)[C@@H](NC(=O)[C@H](CCCCNC(=N)N)NC(=O)[C@H](C)NC(=O)[C@@H](NC(=O)[C@H](CCCCNC(=N)N)NC(=O)CNC(=O)[C@H](C)NC(=O)[C@@H](NC(=O)[C@@H](N)CCCCNC(=N)N)[C@@H](C)CC)[C@@H](C)CC)[C@@H](C)CC)[C@@H](C)CC)[C@@H](C)CC)C(=O)N[C@@H](C)C(N)=O [(SEQ ID NO: 66)-NH2] (H-[hArg]IAG[hArg]IA[hArg]IAG[hArg]IA[hArg]IAG[hArg]IA-NH2)	4	–	–	–	–	–	–
CCCCCCCC(=O)N[C@@H](CCCCN)C(=O)N[C@H](C(=O)N[C@@H](C)C(=O)NCC(=O)N[C@@H](CCCCN)C(=O)N[C@H](C(=O)N[C@@H](C)C(=O)N[C@@H](CCCCN)C(=O)N[C@H](C(=O)N[C@@H](C)C(=O)NCC(=O)N[C@@H](CCCCN)C(=O)N[C@H](C(=O)N[C@@H](C)C(=O)N[C@@H](CCCCN)C(=O)N[C@H](C(=O)N[C@@H](C)C(=O)NCC(=O)N[C@@H](CCCCN)C(=O)N[C@H](C(=O)N[C@@H](C)C(N)=O)[C@@H](C)CC)[C@@H](C)CC)[C@@H](C)CC)[C@@H](C)CC)[C@@H](C)CC)[C@@H](C)CC [Oct-(SEQ ID NO: 27)-NH2] (Octanoyl-KIAGKIAKIAGKIAKIAGKIA-NH2)	16	–	–	–	–	–	–
CCCCCCCC(=O)N[C@@H](CCCCN)C(=O)N[C@H](C(=O)N[C@@H](C)C(=O)NCC(=O)N[C@@H](CCCCN)C(=O)N[C@H](C(=O)N[C@@H](C)C(=O)N[C@@H](CCCCN)C(=O)N[C@H](C(=O)N[C@@H](C)C(=O)NCC(=O)N[C@@H](CCCCN)C(=O)N[C@H](C(=O)N[C@@H](C)C(=O)N[C@@H](CCCCN)C(=O)N[C@H](C(=O)N[C@@H](C)C(=O)NCC(=O)N[C@@H](CCCCN)C(=O)N[C@H](C(=O)N[C@@H](C)C(=O)O)[C@@H](C)CC)[C@@H](C)CC)[C@@H](C)CC)[C@@H](C)CC)[C@@H](C)CC)[C@@H](C)CC [Oct-(SEQ ID NO: 27)-OH] (Octanoyl-KIAGKIAKIAGKIAKIAGKIA-OH)	1	–	–	–	–	–	–
CCCCCCCC(=O)N[C@@H](CCCCNC(=N)N)C(=O)N[C@H](C(=O)N[C@@H](C)C(=O)NCC(=O)N[C@@H](CCCCNC(=N)N)C(=O)N[C@H](C(=O)N[C@@H](C)C(=O)N[C@@H](CCCCNC(=N)N)C(=O)N[C@H](C(=O)N[C@@H](C)C(=O)NCC(=O)N[C@@H](CCCCNC(=N)N)C(=O)N[C@H](C(=O)N[C@@H](C)C(=O)N[C@@H](CCCCNC(=N)N)C(=O)N[C@H](C(=O)N[C@@H](C)C(=O)NCC(=O)N[C@@H](CCCCNC(=N)N)C(=O)N[C@H](C(=O)N[C@@H](C)C(N)=O)[C@@H](C)CC)[C@@H](C)CC)[C@@H](C)CC)[C@@H](C)CC)[C@@H](C)CC)[C@@H](C)CC [Oct-(SEQ ID NO: 66)-NH2] (Octanoyl-[hArg]IAG[hArg]IA[hArg]IAG[hArg]IA[hArg]IAG[hArg]IA-NH2)	2	–	–	–	–	–	–
CCCCCCCC(=O)N[C@@H](CCCCN)C(=O)N[C@H](C(=O)N[C@@H](C)C(=O)N[C@@H](CCCCN)C(=O)N[C@@H](CCCCN)C(=O)N[C@H](C(=O)N[C@@H](C)C(=O)N[C@@H](CCCCN)C(=O)N[C@H](C(=O)N[C@@H](C)C(=O)N[C@@H](CCCCN)C(=O)N[C@@H](CCCCN)C(=O)N[C@H](C(=O)N[C@@H](C)C(=O)N[C@@H](CCCCN)C(=O)N[C@H](C(=O)N[C@@H](C)C(=O)N[C@@H](CCCCN)C(=O)N[C@@H](CCCCN)C(=O)N[C@H](C(=O)N[C@@H](C)C(=O)O)[C@@H](C)CC)[C@@H](C)CC)[C@@H](C)CC)[C@@H](C)CC)[C@@H](C)CC)[C@@H](C)CC [Oct-(SEQ ID NO: 86)-OH] (Octanoyl-KIAKKIAKIAKKIAKIAKKIA-OH)	1	–	–	–	–	–	–
(SEQ ID NO: 86)-OH: (Lys Ile Ala Lys Lys Ile Ala)3 unsubstituted at the N-terminal, C-terminal OH (H-KIAKKIAKIAKKIAKIAKKIA-OH)	4	32	16	16	4 μl/ml	8	16
KIAGKIAKIAGKIAKIAGKIA-NH2 [(SEQ ID NO: 27)-NH2]	4	–	–	–	–	–	–
KIAKKIAKIAKKIAKIAKKIA-NH2 [(SEQ ID NO: 86)-NH2]	4	16	8	8	2 μl/ml	–	4
KVALKALKKVALKALKVALKAL-NH2 [(SEQ ID NO: 152)-NH2]	4	16	4	32	4,8 μl/ml	8	16
